Results reported in the CheMixHub viscosity set.
Several values for one entry are separate records, joined by “and”; a condition that tells them apart may be missing. Equal values may be shown once. ± gives the uncertainty stated by the source.

How the values were obtained:
[1] = xn = mol fraction of the nth substance listed; details: 101.33 kPa

CCCCCCCCC
viscosity
Details | 298.15 K | 303.15 K | 308.15 K | 313.15 K | 318.15 K | 323.15 K
100 kPa | 0.668 ± 0.027 mPa·s | 0.627 ± 0.025 mPa·s | – | 0.556 ± 0.023 mPa·s | 0.526 ± 0.021 mPa·s | 0.498 ± 0.02 mPa·s
101 kPa | 0.6626 ± 0.0066 mPa·s and 0.6588 ± 0.0084 mPa·s and 0.668 ± 0.013 mPa·s | 0.641 ± 0.007 mPa·s | 0.5808 ± 0.0074 mPa·s and 0.588 ± 0.012 mPa·s and 0.5974 ± 0.0085 mPa·s | 0.5652 ± 0.0084 mPa·s | 0.512 ± 0.0066 mPa·s | 0.5073 ± 0.0082 mPa·s
101.33 kPa | – | – | – | 0.535 ± 0.015 mPa·s | 0.505 ± 0.014 mPa·s | –

CCN(CCO)CCO
101 kPa
Details | viscosity [mPa·s]
303.15 K | 48.27 ± 0.7
308.15 K | 36.72 ± 0.57
313.15 K | 28.36 ± 0.43
318.15 K | 22.31 ± 0.33
323.15 K | 17.78 ± 0.28

CCCCCCCCc1ccccc1
102 kPa
Details | viscosity [mPa·s]
293.15 K | 2.57 ± 0.02
303.15 K | 2.08 ± 0.01
313.15 K | 1.73 ± 0.01
323.15 K | 1.46 ± 0.01

COCOC
viscosity [mPa·s]
Details | 293.15 K | 298.15 K | 303.1 K | 303.15 K | 308.15 K | 313.15 K
100 kPa | 0.371 ± 0.037 | 0.357 ± 0.036 | – | 0.346 ± 0.035 | 0.337 ± 0.034 | 0.329 ± 0.033
101 kPa | – | – | 0.304 ± 0.013 | – | – | –

O=S(Cl)Cl
Details | viscosity [mPa·s]
298.15 K, 101 kPa | 0.6194 ± 0.016

CC(N)CN (stereo not drawn)
viscosity
Details | 293.15 K | 298.15 K | 303.15 K | 308.15 K | 313.15 K | 318.15 K | 323.15 K
101 kPa | – | 1.481 ± 0.027 mPa·s | 1.314 ± 0.024 mPa·s and 1.325 ± 0.016 mPa·s | 1.175 ± 0.022 mPa·s and 1.192 ± 0.014 mPa·s | 1.058 ± 0.02 mPa·s and 1.084 ± 0.013 mPa·s | 0.9597 ± 0.018 mPa·s and 0.9891 ± 0.012 mPa·s | 0.9091 ± 0.011 mPa·s
101.33 kPa | 1.61 ± 0.07 mPa·s | 1.49 ± 0.06 mPa·s and 1.47 ± 0.05 mPa·s | 1.31 ± 0.05 mPa·s and 1.34 ± 0.04 mPa·s | 1.19 ± 0.05 mPa·s and 1.13 ± 0.04 mPa·s | 1.06 ± 0.04 mPa·s and 1.06 ± 0.03 mPa·s | 0.96 ± 0.04 mPa·s and 0.97 ± 0.03 mPa·s | –

CCC(O)CC + COc1ccccc1
viscosity [mPa·s], [1]
Details | x2 = 0.1007 | x2 = 0.2006 | x2 = 0.3001 | x2 = 0.3996 | x2 = 0.5 | x2 = 0.5999 | x2 = 0.6973 | x2 = 0.7998 | x2 = 0.8971
303.15 K | 2.787 ± 0.037 | 2.043 ± 0.027 | 1.547 ± 0.02 | 1.238 ± 0.016 | 1.062 ± 0.013 | 0.976 ± 0.012 | 0.941 ± 0.012 | 0.927 ± 0.011 | 0.917 ± 0.011
313.15 K | 1.745 ± 0.023 | 1.355 ± 0.018 | 1.093 ± 0.014 | 0.938 ± 0.012 | 0.863 ± 0.011 | 0.835 ± 0.011 | 0.824 ± 0.01 | 0.811 ± 0.01 | 0.793 ± 0.01
323.15 K | 1.261 ± 0.017 | 1.041 ± 0.014 | 0.888 ± 0.012 | 0.795 ± 0.01 | 0.747 ± 0.01 | 0.729 ± 0.009 | 0.719 ± 0.009 | 0.709 ± 0.009 | 0.697 ± 0.009

CCCCCCCC/C=C\CCCCCCCC(=O)OCC(COC(=O)CCCCCCC/C=C\CCCCCCCC)OC(=O)CCCCCCC/C=C\CCCCCCCC + CCCCCCCC
viscosity [mPa·s], [1]
Details | x1 = 0.000908 | x1 = 0.001916 | x1 = 0.004907 | x1 = 0.0101 | x1 = 0.02609 | x1 = 0.03555 | x1 = 0.05997 | x1 = 0.08297
293.15 K | 0.5531 ± 0.015 | 0.5668 ± 0.016 | 0.6068 ± 0.017 | 0.6753 ± 0.018 | 0.9348 ± 0.024 | 1.11 ± 0.028 | 1.638 ± 0.039 | 2.268 ± 0.053
298.15 K | 0.5204 ± 0.015 | 0.5329 ± 0.015 | 0.5699 ± 0.016 | 0.6331 ± 0.017 | 0.8701 ± 0.022 | 1.03 ± 0.026 | 1.505 ± 0.036 | 2.064 ± 0.049
303.15 K | 0.4903 ± 0.014 | 0.502 ± 0.014 | 0.536 ± 0.015 | 0.5947 ± 0.016 | 0.8126 ± 0.021 | 0.9579 ± 0.024 | 1.388 ± 0.034 | 1.894 ± 0.045
308.15 K | 0.4628 ± 0.013 | 0.4737 ± 0.014 | 0.5055 ± 0.014 | 0.5596 ± 0.015 | 0.7605 ± 0.02 | 0.8936 ± 0.023 | 1.284 ± 0.031 | 1.741 ± 0.042
313.15 K | 0.4377 ± 0.013 | 0.4478 ± 0.013 | 0.4774 ± 0.014 | 0.5277 ± 0.015 | 0.7134 ± 0.019 | 0.8357 ± 0.022 | 1.191 ± 0.029 | 1.606 ± 0.038
